Data reported in patent publication US7867731B2, “HX2004-6 polypeptide expressed in cancerous cells” (Novartis Vaccines and Diagnostics, Inc., priority 1998, dated 2011).

Columns and labels:
Assay type in all cases: cell-based, human
TTK mRNA = test: Antisense depletion of TTK mRNA after transfection, quantitated by real-time PCR; conditions: SW620 cells, oligonucleotide final concentration 30 nM, normalized to beta-actin
Description: A number of different oligonucleotides complementary to TTK mRNA were designed as potential antisense oligonucleotides, and tested for their ability to suppress expression of TTK. The ability of each designed antisense oligonucleotide to inhibit gene expression was tested through transfection into SW620 colon colorectal carcinoma cells. For each transfection mixture, a carrier molecule, preferably a lipitoid or cholesteroid, was prepared to a working concentration of 0.5 mM in water, sonicated to yield a uniform solution, and filtered through a 0.45 μm PVDF membrane. The antisense or control oligonucleotide was then prepared to a working concentration of 100 μM in sterile Millipore water. The oligonucleotide was further diluted in OptiME™ (Gibco/BRL), in a microfuge tube, to 2 μM, or approximately 20 μg oligo/ml of OptiMEM™. […]
The level of target mRNA (TTK) in the transfected cells was quantitated in the cancer cell lines using the Roche LightCycler™ real-time PCR machine. […]
An amplification mixture was prepared by mixing in the following order: 1×PCR buffer II, 3 mM MgCl2, 140 μM each dNTP, 0.175 pmol each oligo, 1:50,000 dil of SYBR® Green, 0.25 mg/ml BSA, 1 unit Taq polymerase, and H2O to 20 μl. […] As double stranded PCR product is produced during amplification, the fluorescence from SYBR®) Green increases. […]

SW620 cells [1] = test: Soft agar colony formation assay; conditions: 2000 cells per well, oligo added without delivery vehicle
Description: The effect of TTK expression upon colony formation was tested in a soft agar assay. Soft agar assays were conducted by first establishing a bottom layer of 2 ml of 0.6% agar in media plated fresh within a few hours of layering on the cells. The cell layer was formed on the bottom layer by removing cells transfected as described above from plates using 0.05% trypsin and washing twice in media. The cells were counted in a Coulter counter, and resuspended to 10^6 per ml in media. 10 μl aliquots are placed with media in 96-well plates (to check counting with WST1), or diluted further for soft agar assay. 2000 cells are plated in 800 μl 0.4% agar in duplicate wells above 0.6% agar bottom layer. After the cell layer agar solidifies, 2 ml of media is dribbled on top and antisense or reverse control oligo is added without delivery vehicles. Fresh media and oligos are added every 3-4 days. Colonies are formed in 10 days to 3 weeks. Fields of colonies were counted by eye. Wst-1 metabolism values can be used to compensate for small differences in starting cell number. Larger fields can be scanned for visual record of differences.

SW620 cells [2] = test: Cell death by LDH release (Cytotoxicity Detection Kit)
Description: SW620 cells were transfected as described for proliferation assays. For cytotoxic effect in the presence of cisplatin (cis), the same protocol was followed but cells were left in the presence of 2 μM drug. Each day, cytotoxicity was monitored by measuring the amount of LDH enzyme released in the medium due to membrane damage. The activity of LDH was measured using the Cytotoxicity Detection Kit from Roche Molecular Biochemicals. The data is provided as a ratio of LDH released in the medium vs. the total LDH present in the well at the same time point and treatment (rLDH/tLDH).

Row | Substance | depletion of TTK RNA in the transfection assays (TTK mRNA) | colony size and number compared to reverse control (79-9RC) or control oligonucleotides (52-3AS, 52-3RC) (SW620 cells [1]) | sensitization of the cells to treatment by cisplatin (SW620 cells [2]; 2 μM cisplatin, rLDH/tLDH) | cell death compared to control oligo (rLDH/tLDH) (SW620 cells [2]; day 3)
1 | 79-5AS (antisense GGGACTCTTCCAAATGGGCATGACT; chemistry not given here) [Oligo 79-5AS] | effectively deplete TTK RNA | – | – | –
2 | 79-9AS (antisense TCCAGTAACTCTTGCGTTCCCATGG; chemistry not given here) [Oligo 79-9AS] | effectively deplete TTK RNA | decreased colony size and number | – | –
3 | Oligo 79-9AS: TTK antisense oligonucleotide TCCAGTAACTCTTGCGTTCCCATGG (SEQ ID NO:6) (chemistry not given here) | – | – | does not sensitize the cells to treatment by cisplatin at a detectable level | increased death
